Tests used:
[1] = tested on: MDA-MB-231 cells; test: Transwell ECM-based invasion assay, MDA-MB-231; assay type: cell-based, human; conditions: for inhibition of tumor cell invasion: MDA-MB-231, three GSK3 inhibitors, FIG. 7B
Experimental: To experimentally test the in silico predictions made by Cosiner™ and to pursue an inhibitor of metastasis, an in vitro ECM-based invasion assay was performed. An invasion assay is an in vitro proxy for the process of cells migrating and breaking through the extracellular matrix as would occur in the body during metastasis. All three GSK3A/GSK3B inhibitors tested were effective at inhibiting the invasion of the human triple negative breast cancer cell model MDA-MB-231 cells (FIG. 7B). […] Cell viability was determined at 10 μM by CellTiter-Glo® (CTG). […] At 10 μM doses, off-target effects can confound pharmacologic interpretations not to mention that it is unlikely to be a physiologically feasible dose for mice or humans. The viability at for each of the line as tested with each of these drugs was 76.4% for CHIR-99021 and 80.5% for 6-BIO 10 μM of drug by CTG.
(§1) Culture medium was removed when cells reached 80% confluence. Cultures were gently rinsed with PBS to remove all the remaining serum. Serum-free medium was added to the cultures and they were incubated overnight at 37° C. 5% CO2.
(§2) 786-O. NCI-H460, NCI-H226, MDA-MB-231 and DU-145 cells were tested in transwells with 3 μm pores. HCT-116, PC-3, MDA-MB-453 and COLO-205 cells were tested in transwells with 8 μm pores.
(§3) First, the Matrigel® was thawed in an ice bath in a refrigerator (4° C.) overnight. Matrigel® was then diluted into serum-free, cold cell culture media (1:8 dilution). 20 μL of diluted Matrigel®) was added into each well of BD Falcon™ Multiwell 96-well cell culture inserts. Transwell inserts were incubated at 37° C., for at least 4 to 5 hours for gelling. Before use, the transwells were rehydrated by adding 100 μL PBS to the insert and incubated at 37° C., in ambient air for 2 hours.
Cells were harvested using Trypsin and washed once with serum free medium. Cells were resuspended with serum-free medium. The 786-O cell density was adjusted to 2×10^5 cells/mL; the NCI-H460 and NCI-H226 cell density was adjusted to 5×10^6 cells/mL; the MDA-MB-231 and DU-145 cell density was adjusted to 1×10^6 cells/mL; the HCT-116 cell density was adjusted to 5×10^6 cells/mL; the PC-3 cell density to 1×10^6 cell/mL; the MDA-MB-453 cell density was adjusted to 5×10^5 cells/mL; and the COLO-205 cell density was adjusted to 2×10^6 cells/mL.
Cells were pre-treated with compounds, which were dissolved in DMSO and diluted to the desired concentration in culture medium. The pretreatment was performed in Ultra-low attachment multiwell plates. 90 μL cells and 10 μL compound solution were mixed in each well of the plate. The plate was covered with a lid and incubated for 60 minutes. 50 μL of cells was seeded onto each top insert, which was pre-coated with 1:8 diluted Matrigel®. 180 μL of warm (37° C.) culture medium containing 10% FBS was added to the lower chamber of the transwell plate. 200 μL serum-free medium and 20 μL of compound dilution was added to the indicated lower chamber as the negative control. The 96-Multiwell Insert system was transferred to the incubator for 16 hours at 37° C., and 5% CO2. Next, the insert was transferred to a new plate. The lower chambers were centrifuged at 3000 rpm for 5 minutes and then washed twice with PBS.
The insert was transferred back to the lower chamber and 200 μL of the DiTC12(3) fluorescent dye solution was added. The final concentration of DiIC12(3) was 5 μg/mL. Plates were incubated for 30 minutes at 37° C., and 5% CO2. The plates were then washed with PBS twice. The invaded/migrated cells were monitored by reading fluorescence at 530/590 nm on a PerkinElmer EnSpire™ plate reader.
Percent inhibition for compound was calculated using Formula 6.
The positive control was DMSO treated and had medium with 10% FBS (average of 3 wells per cell line) in receiver well. The negative control was DMSO treated with no FBS in the receiver well (average of 3 wells per cell line). […]

[2] = tested on: MDA-MB-231 cells; test: CellTiter-Glo viability, MDA-MB-231; assay type: cell-based, human; conditions: MDA-MB-231, 10 μM of drug
Experimental: (§4) Viability was determined at the maximum drug concentration measured in a given experiment via CellTiter-Glo® (CTG) per manufacturers recommendations: https://www.promega.com/-/media/files/resources/protocols/technical-bulletins/0/celltiter-glo-luminescent-cell-viability-assay-protocol.pdf?la=en.

[3] = CellTiter-Glo viability, MDA-MB-231; assay type: cell-based, human; conditions: human, MDA-MB-231 cells; for viability at 10 µM: MDA-MB-231, 10 μM of drug
Experimental: as §4

[4] = tested on: PC-3 (prostate cancer) cells; test: Transwell invasion assay, PC-3; assay type: cell-based; conditions: PC-3, cell line panel, FIG. 9A
Experimental: as §1, §2, §3
(§5) Cells were harvested using Trypsin and washed once with serum free medium. Cells were resuspended with serum-free medium. […]
(§6) The insert was transferred back to the lower chamber and 200 μL of the DiTC12(3) fluorescent dye solution was added. […] The invaded/migrated cells were monitored by reading fluorescence at 530/590 nm on a PerkinElmer EnSpire™ plate reader.
(§7) Percent inhibition for compound was calculated using Formula 6. […]

[5] = tested on: DU-145 (prostate cancer) cells; test: Transwell invasion assay, DU-145; assay type: cell-based; conditions: DU-145, cell line panel, FIG. 9A
Experimental: as §1, §2, §3, §5, §6, §7

[6] = tested on: 786-O (renal cancer) cells; test: Transwell invasion assay, 786-O; assay type: cell-based; conditions: cell line panel, FIG. 9A
Experimental: as §1, §2, §3, §5, §6, §7

[7] = tested on: NCI-H226 (lung cancer) cells; test: Transwell invasion assay, NCI-H226; assay type: cell-based; conditions: NCI-H226, cell line panel, FIG. 9A
Experimental: as §1, §2, §3, §5, §6, §7

[8] = tested on: NCI-H460 (lung cancer) cells; test: Transwell invasion assay, NCI-H460; assay type: cell-based; conditions: NCI-H460, cell line panel, FIG. 9A
Experimental: as §1, §2, §3, §5, §6, §7

[9] = tested on: MDA-MB-453 (breast cancer) cells; test: Transwell invasion assay, MDA-MB-453; assay type: cell-based; conditions: MDA-MB-453, cell line panel, FIG. 9B; low baseline invasiveness
Experimental: as §1, §2, §3, §5, §6, §7

[10] = tested on: HCT-116 (colon cancer) cells; test: Transwell invasion assay, HCT-116; assay type: cell-based; conditions: HCT-116, cell line panel, FIG. 9B; low baseline invasiveness
Experimental: as §1, §2, §3, §5, §6, §7

[11] = tested on: COLO-205 (colon cancer) cells; test: Transwell invasion assay, COLO-205; assay type: cell-based; conditions: COLO-205, cell line panel, FIG. 9B
Experimental: as §1, §2, §3, §5, §6, §7

[12] = tested on: A549 (lung cancer) cells; test: Transwell invasion assay, A549; assay type: cell-based; conditions: A549, previous experiment, FIG. 9B
Experimental: as §1, §3
Cells were pre-treated with compounds, which were dissolved in DMSO and diluted to the desired concentration in culture medium. The pretreatment was performed in Ultra-low attachment multiwell plates. 90 μL cells and 10 μL compound solution were mixed in each well of the plate. The plate was covered with a lid and incubated for 60 minutes. […]
as §6, §7

[13] = CellTiter-Glo viability, PC-3; assay type: cell-based; conditions: human, PC-3 cells; PC3, 600 nM; read-out: cell viability by CellTiter-Glo
Experimental: as §4

[14] = CellTiter-Glo viability, DU-145; assay type: cell-based; conditions: human, DU-145 cells; DU-145, 600 nM; read-out: cell viability by CellTiter-Glo
Experimental: as §4

[15] = CellTiter-Glo viability, 786-O; assay type: cell-based; conditions: human, 786-O cells, 600 nM, assay threshold 80%, read-out: cell viability by CellTiter-Glo
Experimental: as §4

[16] = CellTiter-Glo viability, NCI-H226; assay type: cell-based; conditions: human, NCI-H226 cells; NCI-H226, 600 nM; read-out: cell viability by CellTiter-Glo
Experimental: as §4

[17] = CellTiter-Glo viability, NCI-H460; assay type: cell-based; conditions: human, NCI-H460 cells; NCI-H460, 600 nM; read-out: cell viability by CellTiter-Glo
Experimental: as §4

[18] = CellTiter-Glo viability, MDA-MB-453; assay type: cell-based; conditions: human, MDA-MB-453 cells; MDA-MB-453, 600 nM; read-out: cell viability by CellTiter-Glo
Experimental: as §4

[19] = CellTiter-Glo viability, HCT-116; assay type: cell-based; conditions: human, HCT-116 cells; HCT-166 (so in the source), 600 nM; read-out: cell viability by CellTiter-Glo
Experimental: as §4

[20] = CellTiter-Glo viability, COLO-205; assay type: cell-based; conditions: human, COLO-205 cells; COLO-205, 600 nM; read-out: cell viability by CellTiter-Glo
Experimental: as §4

[21] = CellTiter-Glo viability, A549; assay type: cell-based; conditions: human, A549 cells; A549, 600 nM; read-out: cell viability by CellTiter-Glo
Experimental: as §4

[22] = read-out: cell viability by CellTiter-Glo

Q: For O=C1Nc2cc(Br)ccc2/C1=C1/Nc2ccccc2/C1=N\O [6-BIO], which “inhibition of tumor cell invasion” value [1] is on record?
A: The value was “inhibited tumor cell invasion but only at the higher dose levels tested (e.g., 1-10 μM)”.

Q: What about the “cell viability by CellTiter-Glo” value [2] of the same compound?
A: Its value is 80.5%.

Q: Which results are given for Cc1c[nH]c(-c2cnc(NCCNc3ccc(C#N)cn3)nc2-c2ccc(Cl)cc2Cl)n1 [CHIR-99021]?
A: inhibition of tumor cell invasion [1]: inhibited tumor cell invasion but only at the higher dose levels tested (e.g., 1-10 μM); viability at 10 µM [3, 22]: 76.4%

Q: With O=C1NC(=O)C(c2cnc3ccccn23)=C1c1cn2c3c(cc(F)cc13)CN(C(=O)N1CCCCC1)CC2 [LY-2090314] as the compound, how does the IC50 ([1]; Homo sapiens, MDA-MB-231, dose response FIG. 8, average of 6 wells, read-out: 50% inhibition of baseline invasion) read?
A: The IC50 was about 5 nM.

Q: What about the inhibition of invasion ([1]; MDA-MB-231, cell line panel, FIG. 9A, average of 6 wells) of the same compound?
A: Its inhibition of invasion is “markedly inhibited”.

Q: What about the “dose of maximal inhibition of tumor cell invasion” value ([1]; MDA-MB-231, dose response FIG. 8, average of 6 wells) of the same compound?
A: Its value is “approximately 24 nM”.

Q: And the “inhibition of tumor cell invasion” value [1]?
A: Its value is “inhibited tumor cell invasion at all concentrations tested”.

Q: What about the viability at 0.6 µM ([3]; MDA-MB-231, 600 nM of drug, dose response experiment (FIG. 8), read-out: cell viability by CellTiter-Glo) of the same compound?
A: The viability at 0.6 µM was 93.5%.

Q: And the viability at 0.6 µM ([3]; MDA-MB-231, 600 nM, cell line panel experiment (FIG. 9A))?
A: Its viability at 0.6 µM is 95.5%.

Q: And the viability at 10 µM [3, 22]?
A: The viability at 10 µM was about 100%.

Q: What about the inhibition of invasion [4] of the same compound?
A: Its inhibition of invasion is “markedly inhibited”.

Q: What about the inhibition of invasion [5] of the same compound?
A: The inhibition of invasion was “markedly inhibited”.

Q: And the inhibition of invasion [6]?
A: Its inhibition of invasion is “markedly inhibited”.

Q: What about the inhibition of invasion [7] of the same compound?
A: Its inhibition of invasion is “markedly inhibited”.

Q: What about the inhibition of invasion [8] of the same compound?
A: The inhibition of invasion was “markedly inhibited”.

Q: What about the inhibition of invasion [9] of the same compound?
A: The inhibition of invasion was “did not significantly inhibit”.

Q: What about the inhibition of invasion [10] of the same compound?
A: The inhibition of invasion was “did not significantly inhibit”.

Q: What about the inhibition of invasion [11] of the same compound?
A: The inhibition of invasion was “did not significantly inhibit”.

Q: What about the inhibition of invasion [12] of the same compound?
A: The inhibition of invasion was “did not significantly inhibit”.

Q: And the viability at 0.6 µM [13]?
A: The viability at 0.6 µM was about 100%.

Q: What about the viability at 0.6 µM [14] of the same compound?
A: Its viability at 0.6 µM is about 100%.

Q: What about the viability at 0.6 µM [15] of the same compound?
A: Its viability at 0.6 µM is 83%.

Q: What about the viability at 0.6 µM [16] of the same compound?
A: The viability at 0.6 µM was about 100%.

Q: What about the viability at 0.6 µM [17] of the same compound?
A: The viability at 0.6 µM was about 100%.

Q: And the viability at 0.6 µM [18]?
A: Its viability at 0.6 µM is about 100%.

Q: What about the viability at 0.6 µM [19] of the same compound?
A: The viability at 0.6 µM was about 97.7%.

Q: What about the viability at 0.6 µM [20] of the same compound?
A: Its viability at 0.6 µM is about 100%.

Q: And the viability at 0.6 µM [21]?
A: Its viability at 0.6 µM is 99.3%.

— patent publication US11942223B1, “Systems and methods for rapid gene set enrichment analysis” (Immuneering Corporation, priority 2018, dated 2024)
